Data as given in patent US7998940B2, “Aptamers to von Willebrand factor and their use as thrombotic disease therapeutics” (Archemix Corp., priority 2004, dated 2011).

Assays:
[1] = pharmacokinetics of ARC1779 after 0.5 mg/kg IV bolus in cynomolgus macaques (HPLC); assay type: in vivo; conditions: 0.5 mg/kg single IV bolus, 2-compartment analysis
Description: -PK/PD correlation of ARC1779 was evaluated in three cynomolgus macaques after a single intravenous (IV) bolus dose at 0.5 mg/kg. ARC1779 levels in the plasma were correlated to PD effects of ARC1779 in inhibition of platelet function or prolongation of cutaneous bleeding time (CBT).
(§1) Following IV administration, blood was collected percutaneously at various time points post-dose for PK and PD analysis. PD effect of ARC1779 on platelet function was determined by PFA-100 assays and effect of ARC1779 on bleeding was measured by CBT time. In addition, plasma samples were analyzed by HPLC for quantitation of ARC1779 levels. PK parameter estimates were determined by 2-compartment analysis.

[2] = tested on: platelet function; test: ex vivo PFA-100 platelet function after 0.5 mg/kg IV bolus in cynomolgus macaques; conditions: 0.5 mg/kg single IV bolus
Description: as §1
C. macaques were dosed at 0.5 mg/kg IV bolus with ARC1779 (SEQ ID NO 320). PFA-100 closure time, BIPA and cutaneous bleeding time (“CBT”) were all measured as a function of time throughout the studies. BIPA and PFA-100 closure times were measured as described in previously in Example 3. Cutaneous bleeding times were measured using standard protocols described as follows.

[3] = tested on: intra-arterial thrombosis of carotid arteries; test: cynomolgus macaque electrolytic thrombosis model; assay type: in vivo, cynomolgus monkeys
Description: A study was performed to test the efficacy of ARC1779 (SEQ ID NO 320) in inhibiting intra-arterial thrombosis in a well documented non-human primate electrolytic thrombosis model. See, e.g., Rote et al., Stroke, 1994: 25, 1223-1233.
Each animal was anesthetized prior to surgical preparation, intubated and maintained in anesthesia with isoflurane inhalant anesthetic to effect delivered through a volume-regulated respirator. An intravenous catheter was also placed in a peripheral vein for administration of lactated Ringer's solution during the procedure.
A catheter was placed in the femoral artery of each animal for continuous monitoring of arterial blood pressure. Similarly a catheter was placed in the femoral vein for blood sample collection. Each carotid artery was instrumented with a Doppler flow probe connected to a flow meter. The flow probes were placed around the artery at a point proximal to the insertion of the intra-arterial electrode and stenosis. The stenosis was placed around each carotid artery so that the […] was reduced by approximately 50% to 60% without altering the mean […]. Blood flow in the carotid arteries was monitored and recorded continuously throughout the observation periods.
Electrolytic injury to the intimal surface of each carotid artery was accomplished via placement of an intravascular electrode. Each electrode was connected to the positive pole of a constant current device and cathode connected to a distant subcutaneous site. Continuous current was delivered to each vessel for a period of 3 hours or for 30 minutes after complete occlusion, whichever was shorter.
Once the electrodes were placed on the right carotid artery (“RCA”) the animal was administered the test article as indicated in Table 32 above. Approximately 15 minutes after test article administration, the electrical current was applied at 100 μA. Blood samples and CBT measurements were collected at the time points specified in Blood Sample Collection Schedule as indicated in FIG. 31. The current was terminated ˜30 minutes after the blood flow signal remained stable at zero flow (which indicates an occlusive thrombus had been formed at the site) or after 180 minutes of electrical stimulation. Approximately 195 minutes after the test article was administered, the left carotid artery (“LCA”) had electrical current administered in a similar fashion as previously described for the RCA. After termination of all surgical procedures and sample collection each animal was euthanized.
An additional 10 cynomolgus monkeys (2.5 to 3.5 kg) were divided into treatment groups 5 to 7 and were treated according the regimen indicated in Table 33 below.
The animal procedure for each treatment group in Table 33 was conducted as reported for the animals in Example 5B.

[4] = tested on: rabbit vWF A1 domain (SEQ ID NO 6); test: dot blot KD determination, rabbit vWF A1 domain; assay type: binding; conditions: dot blot, 12 point protein titration, 1xDPBS plus 0.1 mg/mL BSA, room temperature, 30 minutes
rabbit vWF A1 domain (SEQ ID NO 6), sequence (as listed by the source): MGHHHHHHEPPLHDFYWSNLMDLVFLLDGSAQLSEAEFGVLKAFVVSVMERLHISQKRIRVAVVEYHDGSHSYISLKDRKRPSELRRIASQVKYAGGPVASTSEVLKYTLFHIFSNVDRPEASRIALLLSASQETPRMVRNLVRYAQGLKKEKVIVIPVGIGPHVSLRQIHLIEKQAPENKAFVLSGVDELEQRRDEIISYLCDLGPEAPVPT
Description: A 12 point protein titration was used in the dot blot assay (300 nM, 100 nM, 30 nM, 10 nM, 3 nM, 1 nM, 300 pM, 100 pM, 30 pM, 10 pM, 3 pM, 0 pM) in 1×DPBS plus 0.1 mg/mL BSA at room temperature for 30 minutes.

[5] = molecular target: vWF (Homo sapiens, UniProt P04275, D1472H/Q852R/T1381A); test: cellular / biological vWF dependent assays of Example 3, not specified further; assay type: cell-based; conditions: in words; FACS, BIPA (and PFA-100) assays of Example 3
vWF, sequence (P04275 764-2813 Q852R/T1381A/D1472H): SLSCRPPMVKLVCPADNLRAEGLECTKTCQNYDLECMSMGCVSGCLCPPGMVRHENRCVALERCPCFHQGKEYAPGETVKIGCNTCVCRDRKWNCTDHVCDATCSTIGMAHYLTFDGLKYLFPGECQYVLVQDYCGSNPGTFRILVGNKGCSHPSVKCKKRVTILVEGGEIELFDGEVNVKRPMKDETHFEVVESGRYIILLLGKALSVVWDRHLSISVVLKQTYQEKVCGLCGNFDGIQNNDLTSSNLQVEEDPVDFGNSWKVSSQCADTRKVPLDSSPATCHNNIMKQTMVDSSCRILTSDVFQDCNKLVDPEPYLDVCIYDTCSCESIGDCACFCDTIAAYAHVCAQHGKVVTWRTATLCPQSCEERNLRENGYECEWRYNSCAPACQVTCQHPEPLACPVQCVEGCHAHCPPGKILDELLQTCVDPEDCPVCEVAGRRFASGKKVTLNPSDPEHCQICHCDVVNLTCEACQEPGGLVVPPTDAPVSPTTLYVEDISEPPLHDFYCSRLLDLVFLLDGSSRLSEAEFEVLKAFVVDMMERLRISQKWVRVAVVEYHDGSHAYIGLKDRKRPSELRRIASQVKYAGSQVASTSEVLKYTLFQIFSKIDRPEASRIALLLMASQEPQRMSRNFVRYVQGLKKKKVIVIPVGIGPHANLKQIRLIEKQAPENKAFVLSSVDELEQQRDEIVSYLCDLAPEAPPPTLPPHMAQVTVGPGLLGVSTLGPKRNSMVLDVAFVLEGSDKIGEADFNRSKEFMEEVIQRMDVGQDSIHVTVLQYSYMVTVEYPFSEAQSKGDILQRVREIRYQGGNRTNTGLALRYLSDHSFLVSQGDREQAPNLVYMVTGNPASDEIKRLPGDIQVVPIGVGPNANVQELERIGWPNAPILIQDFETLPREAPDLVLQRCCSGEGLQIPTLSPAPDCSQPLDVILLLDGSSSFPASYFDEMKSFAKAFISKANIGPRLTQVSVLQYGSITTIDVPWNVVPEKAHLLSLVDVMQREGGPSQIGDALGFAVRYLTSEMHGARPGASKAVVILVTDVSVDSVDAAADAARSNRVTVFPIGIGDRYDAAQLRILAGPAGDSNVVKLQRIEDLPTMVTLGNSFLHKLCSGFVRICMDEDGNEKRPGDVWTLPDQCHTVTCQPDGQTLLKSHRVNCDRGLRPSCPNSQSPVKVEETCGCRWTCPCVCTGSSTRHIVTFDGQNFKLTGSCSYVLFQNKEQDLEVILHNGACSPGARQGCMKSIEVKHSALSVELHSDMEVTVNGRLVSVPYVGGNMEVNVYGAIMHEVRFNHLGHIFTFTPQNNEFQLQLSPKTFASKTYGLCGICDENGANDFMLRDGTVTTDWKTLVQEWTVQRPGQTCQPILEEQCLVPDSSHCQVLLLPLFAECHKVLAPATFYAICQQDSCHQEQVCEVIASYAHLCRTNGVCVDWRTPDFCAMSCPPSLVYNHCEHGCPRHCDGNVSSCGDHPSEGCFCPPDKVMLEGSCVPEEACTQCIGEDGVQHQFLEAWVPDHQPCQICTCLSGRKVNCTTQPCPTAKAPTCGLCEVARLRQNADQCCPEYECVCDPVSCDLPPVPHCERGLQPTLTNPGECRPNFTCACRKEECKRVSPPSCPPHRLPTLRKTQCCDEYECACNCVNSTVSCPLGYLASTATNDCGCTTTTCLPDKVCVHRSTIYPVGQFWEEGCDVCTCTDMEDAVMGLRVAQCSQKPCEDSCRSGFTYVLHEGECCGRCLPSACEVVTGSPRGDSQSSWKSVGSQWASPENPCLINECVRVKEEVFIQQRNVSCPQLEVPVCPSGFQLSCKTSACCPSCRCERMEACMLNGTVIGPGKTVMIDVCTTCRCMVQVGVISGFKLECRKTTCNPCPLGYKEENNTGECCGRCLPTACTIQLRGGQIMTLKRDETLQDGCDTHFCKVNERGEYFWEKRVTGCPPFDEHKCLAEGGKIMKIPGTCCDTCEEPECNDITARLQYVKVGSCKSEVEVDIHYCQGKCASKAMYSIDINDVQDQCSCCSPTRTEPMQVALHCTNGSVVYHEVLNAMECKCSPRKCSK
From the text: The effectiveness of various aptamers in blocking vWF function in several biological assays is described in this Example.
In one assay botrocetin is used. Botrocetin, a protein isolated from snake venom, is known to induce von Willebrand Factor binding to the gpib receptor on live and fixed platelets. This reaction causes agglutination of suspensions of fixed platelets via vWF multimerization. In preparations of platelet rich plasma (hereinafter “PRP”), vWF/botrocetin induction of agglutination is followed by a second phase of platelet aggregation caused by metabolic activation of the platelets. These two reactions: vWF binding to fixed platelets and vWF mediated platelet aggregation, can be used to measure the activity of aptamers of the invention.

## PEG20K-NH2-mGmCmGmUdGdCdAmGmUmGmCmCmUmUmCmGmGmCdCmG-s-TmGdCdGdGTmGmCdCmUdCdCmGmUdCmAmCmGmC-3T [ARC1779]
[1]
  distribution half-life (t1/2α): approximately 1.0 hour
[2]
  plasma concentration at which platelet function returned to normal (PFA-100): approximately 77 nM
[3]; in words, sequential 180-minute electrical injuries to the carotid arteries
  thrombus formation: inhibited thrombus formation
[3]; infusion targeted to constant plasma level of 300 nM
  carotid arteries that developed occlusive thrombi: 100%
[3]; infusion targeted to constant plasma level of 500 nM
  carotid arteries that developed occlusive thrombi: 63%
[3]; infusion targeted to constant plasma level of 750 nM
  carotid arteries that developed occlusive thrombi: 25%
[3]; infusion targeted to constant plasma level of 1000 nM
  carotid arteries that developed occlusive thrombi: 0%

B1: AMX237.G6: DNA SELEX 2 aptamer clone (nucleic acid)
DNA: CTACCTACGATCTGACTAGCGTGCAGTGCCTATTCCAGGCCGTGCGGTGCCTCCGTCACGCTTACTCTCATGTAGTTCC
modifications: DNA, backbone and methylation of C not given here
notes: DNA SELEX 2 aptamer clone
[4]
  Kd: 47 nM
[5]
  activity in the cellular / biological assays: slightly more potent
